Several values for one entry are separate records, joined by “and”; a condition that tells them apart may be missing. Equal values may be shown once.

The values below come from PMC12669672, “Structural insights into selective and dual antagonism of EP2 and EP4 prostaglandin receptors” (The EMBO Journal, 2025).

One assay deals with T1, EP4 S73A (Homo sapiens, UniProt P35408, S73A).
T1 construct: The full-length EP2 or EP4 was cloned into the pcDNA3.1 vector; FLAG (N); expressed in transfected cells; host or cells: AD293 cells
T1 sequence (P35408 whole entry S73A): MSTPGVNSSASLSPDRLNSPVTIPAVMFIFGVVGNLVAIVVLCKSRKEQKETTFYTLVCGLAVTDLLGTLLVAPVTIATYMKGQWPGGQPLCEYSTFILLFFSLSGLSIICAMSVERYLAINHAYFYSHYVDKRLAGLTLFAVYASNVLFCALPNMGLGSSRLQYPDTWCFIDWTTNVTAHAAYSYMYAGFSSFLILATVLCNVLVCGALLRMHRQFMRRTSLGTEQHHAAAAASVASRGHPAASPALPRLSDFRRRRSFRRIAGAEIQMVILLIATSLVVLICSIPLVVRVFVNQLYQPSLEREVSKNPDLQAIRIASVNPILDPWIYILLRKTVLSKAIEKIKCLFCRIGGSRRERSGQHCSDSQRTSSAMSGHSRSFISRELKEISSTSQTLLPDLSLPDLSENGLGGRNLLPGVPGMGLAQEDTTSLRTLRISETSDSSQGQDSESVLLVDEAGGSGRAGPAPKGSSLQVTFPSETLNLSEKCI
The experiment in a line: GloSensor cAMP assay, antagonism of PGE2-induced cAMP. In kind it is cell-based. The settings on record: for cAMP activity (∆pIC50 from EP4 WT): Grapiprant, S73A; for ΔpIC50: PGE2 0.5 nM, pIC50 mutant - pIC50 WT, mean.

Assay [1] deals with T2, constitutively active EP4 S73A (Homo sapiens, UniProt P35408, S73A).
T2 construct: The full-length EP2 or EP4 was cloned into the pcDNA3.1 vector (Invitrogen), incorporating an N-terminal FLAG tag; expressed in transfected cells; host or cells: AD293
T2 sequence (P35408 whole entry S73A): as above
The experiment in a line: GloSensor cAMP assay, inhibition of constitutive activity. Format: cell-based. The following applies: for ΔpIC50: no PGE2, pIC50 mutant - pIC50 WT, mean. (Cyclic AMP is a second messenger, typically raised through Gs and lowered through Gi signalling.)

Another assay deals with T3, EP4-L99M (Homo sapiens, UniProt P35408, L99M).
T3 construct: The full-length EP2 or EP4 was cloned into the pcDNA3.1 vector (Invitrogen), incorporating an N-terminal FLAG tag; expressed in transfected cells; host or cells: AD293
T3 sequence (P35408 whole entry L99M): as the sequence (P35408 whole entry S73A) above, with A73S, L99M counted along it
The experiment in a line: GloSensor cAMP assay, antagonism of PGE2-induced cAMP, chimeric studies. Format: cell-based. The following applies: for ΔpIC50: PGE2 induced, pIC50 mutant - pIC50 WT, mean. The procedure:
The full-length EP2 or EP4 was cloned into the pcDNA3.1 vector (Invitrogen), incorporating an N-terminal FLAG tag. AD293 cells were seeded in six-well plates containing DMEM supplemented with 10% dialyzed FBS 1 day prior to transfection. Following overnight growth, cells were transfected with a 1:1 ratio of receptor construct and GloSensor22F cAMP biosensor (Promega) plasmids.
Twenty-four hours post-transfection, the cells were transferred to CO2-independent media containing 2% GloSensor cAMP Reagent (Promega) and distributed into 384-well assay plates at a density of 4000 cells per well in 10 μL. […] The plates were then incubated at 37 °C for an additional hour before luminescence measurements were taken using an EnVision plate reader.
Data analysis was performed using GraphPad Prism software v8.0.1. A nonlinear regression analysis, employing a sigmoidal dose–response model, was conducted to determine the Emax values and half-maximum inhibitory concentrations (IC50) for each compound tested.

A further assay deals with EP4. The arrangement: method as in Nakao et al, 2007. The settings on record: [3H]-PGE2 binding assay; ref Nakao et al, 2007; cited from earlier work.
The test system of a further assay is EP2. The arrangement: method as in af Forselles et al, 2011. The settings on record: against PGE2-induced cAMP signaling in GloSensor cAMP assay; ref af Forselles et al, 2011; cited from earlier work.

Usually IC50 stands for the midpoint of a concentration-inhibition curve. The low end stands for inhibition by little substance, the high end for a need for much substance. The term Ki denotes the equilibrium dissociation constant of an inhibitor or competing ligand from its target. Regarding `CCc1nc2c(C)nc(C)cc2n1-c1ccc(CCNC(=O)NS(=O)(=O)c2ccc(C)cc2)cc1` [Grapiprant], the concentration for half-maximal inhibition (IC50) against EP4 S73A is 5.62 nM; in assay [1], 2.19 nM. Besides, the remaining activity at 0.01 µM on EP4 S73A (1 h, Grapiprant log([M]) -8, read-out: % cAMP activity (normalized to WT)) was 11.4%; in assay [1] (1 h, Grapiprant log([M]) -8.00, EP4-S73A, read-out: % cAMP activity (normalized to WT)) it was 38.9%. Further, the remaining activity at 0.001 µM amounted to 21.5% at EP4 S73A (1 h, Grapiprant log([M]) -9, read-out: % cAMP activity (normalized to WT)) and 127% in assay [1] (1 h, Grapiprant log([M]) -9.00, EP4-S73A, read-out: % cAMP activity (normalized to WT)). Besides, the remaining activity at 0.0001 µM at EP4 S73A (1 h, Grapiprant log([M]) -10, read-out: % cAMP activity (normalized to WT)) was 24.9%; on EP4-L99M (1 h, Grapiprant log([M]) -10, single experiments 1st-3rd, Fig. S7C, read-out: % cAMP activity (normalized to WT)) it was 83.5%. The remaining activity at 10 pM at EP4 S73A (1 h, Grapiprant log([M]) -11, read-out: % cAMP activity (normalized to WT)) amounted to 27.6%. Besides, the remaining activity at 1 pM at EP4 S73A (1 h, Grapiprant log([M]) -12, read-out: % cAMP activity (normalized to WT)) was 23.6%; in assay [1] (1 h, Grapiprant log([M]) -12.00, EP4-S73A, read-out: % cAMP activity (normalized to WT)) it was 170%; on EP4-L99M (1 h, Grapiprant log([M]) -12, single experiments 1st-3rd, Fig. S7C, read-out: % cAMP activity (normalized to WT)), 85.6%. In addition, the “cAMP activity (∆pIC50 from EP4 WT)” value at EP4 S73A (Mean) is 0.985; at EP4 S73A (single experiments 1st-3rd), 1.017 and 1.087 and 0.851. In addition, the ΔpIC50 is 0.99 ± 0.07 on EP4 S73A; “enhanced the antagonism” on EP4 S73A (listed as grapiprant); 0.22 ± 0.08 in assay [1]; “hardly influenced antagonistic potency” in assay [1] (listed as grapiprant); -0.23 ± 0.07 at EP4-L99M; “slightly decreased the antagonistic potency” on EP4-L99M (listed as grapiprant). The remaining activity at 10 µM in assay [1] (1 h, Grapiprant log([M]) -5.00, EP4-S73A, read-out: % cAMP activity (normalized to WT)) was found to be 12.1%. For the same compound, the remaining activity at 1 µM in assay [1] (1 h, Grapiprant log([M]) -6.00, EP4-S73A, read-out: % cAMP activity (normalized to WT)) is 13.5%. In addition, the remaining activity at 0.1 µM in assay [1] (1 h, Grapiprant log([M]) -7.00, EP4-S73A, read-out: % cAMP activity (normalized to WT)) was found to be 20.4%; at EP4-L99M (1 h, Grapiprant log([M]) -7, single experiments 1st-3rd, Fig. S7C, read-out: % cAMP activity (normalized to WT)), 52.4%. Moreover, in assay [1] (S73A, Mean), the “Grapiprant cAMP activity (∆pIC50 from EP4 WT), Mean” value amounted to 0.215. In assay [1] (S73A, single experiments 1st-3rd), the “Grapiprant cAMP activity (∆pIC50 from EP4 WT)” value was 0.364 and 0.097 and 0.184. In addition, the Ki on EP4 is 13 nM.
In the case of `COc1ccc2cc(OCC3(C(=O)O)CN(C(=O)c4ccc(F)cc4)C3)ccc2c1` [PF-04418948], in the assay with EP2, the Kb is 1.8 nM.
